# Values joined by “and” are separate entries in the source; they are usually repeats but may differ in a detail not shown here. Equal entries are not always repeated. Inconclusive results and toxic doses are left out.
# System: L1210 leukemia ip in BDF1 mice, survival T/C
# Assay: NCI In Vivo Anticancer Drug Screen. Data for tumor model L1210 Leukemia (intraperitoneal) in B6D2F1 (BDF1) mice
# Conditions: endpoint: mean survival time, higher = longer survival
# How it was run: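 Antitumor effect is assessed in tumor-bearing animals. Survival in the compound arm is compared with a vehicle-dosed control arm and expressed as their quotient.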
# [1] = dose: 100.0 mg/kg/injection, schedule: Q01DX001 (ip), vehicle: carboxymethylcellulose (CMC)
# [2] = dose: 200.0 mg/kg/injection, schedule: Q01DX001 (ip), vehicle: carboxymethylcellulose (CMC)
# [3] = dose: 400.0 mg/kg/injection, schedule: Q01DX001 (ip), vehicle: carboxymethylcellulose (CMC)
# [4] = dose: 100.0 mg/kg/injection, schedule: Q01DX009 (ip), vehicle: Klucel (hydroxypropylcellulose) (HPC)
# [5] = dose: 100.0 mg/kg/injection, schedule: Q01DX001 (ip), vehicle: saline
# [6] = dose: 200.0 mg/kg/injection, schedule: Q01DX001 (ip), vehicle: saline
# [7] = dose: 400.0 mg/kg/injection, schedule: Q01DX001 (ip), vehicle: saline
smiles,measurement,setting,value
C[N+](C)(Cc1ccccc1)CC(O)COc1ccccc1 (stereo unspecified),T/C,"dose: 12.5 mg/kg/injection, schedule: Q01DX001 (ip), vehicle: saline with Tween-80",108 % of control
same,T/C,"dose: 12.5 mg/kg/injection, schedule: Q01DX009 (ip), vehicle: saline with Tween-80",100 % of control
same,T/C,"dose: 12.5 mg/kg/injection, schedule: Q04DX003 (ip), vehicle: saline with Tween-80",92 % of control
same,T/C,"dose: 25.0 mg/kg/injection, schedule: Q01DX001 (ip), vehicle: saline with Tween-80",100 % of control
same,T/C,"dose: 25.0 mg/kg/injection, schedule: Q01DX009 (ip), vehicle: saline with Tween-80",94 % of control
same,T/C,"dose: 25.0 mg/kg/injection, schedule: Q04DX003 (ip), vehicle: saline with Tween-80",94 % of control
same,T/C,"dose: 50.0 mg/kg/injection, schedule: Q01DX001 (ip), vehicle: saline with Tween-80",100 % of control
same,T/C,"dose: 50.0 mg/kg/injection, schedule: Q01DX009 (ip), vehicle: saline with Tween-80",102 % of control
same,T/C,"dose: 50.0 mg/kg/injection, schedule: Q04DX003 (ip), vehicle: saline with Tween-80",103 % of control
CC(=O)c1ccc(Cl)cc1,T/C,[1],91 % of control
same,T/C,[2],91 % of control
same,T/C,[3],97 % of control
Nc1cc(S(N)(=O)=O)ccc1Br,T/C,"dose: 100.0 mg/kg/injection, schedule: Q04DX003 (ip), vehicle: water",95 % of control
same,T/C,"dose: 200.0 mg/kg/injection, schedule: Q04DX003 (ip), vehicle: water",97 % of control
same,T/C,"dose: 400.0 mg/kg/injection, schedule: Q04DX003 (ip), vehicle: water",92 % of control
CCCCCC(C)(O)CC(C)(C)C (stereo unspecified),T/C,[1],92 % of control
same,T/C,[2],97 % of control
same,T/C,[3],97 % of control
CCOC(=O)c1ccc(N=NN(C)C)cc1,T/C,"dose: 30.0 mg/kg/injection, schedule: Q01DX Z (ip), vehicle: carboxymethylcellulose (CMC)",97 % of control and 102 % of control
same,T/C,"dose: 60.0 mg/kg/injection, schedule: Q01DX Z (ip), vehicle: carboxymethylcellulose (CMC)",107 % of control
same,T/C,"dose: 90.0 mg/kg/injection, schedule: Q01DX Z (ip), vehicle: carboxymethylcellulose (CMC)",110 % of control and 124 % of control
CC(=O)C1CCC2C3CC=C4CC(O)C=CC4(C)C3CCC12C (stereo unspecified),T/C,"dose: 100.0 mg/kg/injection, schedule: Q04DX003 (ip), vehicle: Klucel (hydroxypropylcellulose) (HPC)",92 % of control
same,T/C,"dose: 200.0 mg/kg/injection, schedule: Q04DX003 (ip), vehicle: Klucel (hydroxypropylcellulose) (HPC)",96 % of control
same,T/C,"dose: 400.0 mg/kg/injection, schedule: Q04DX003 (ip), vehicle: Klucel (hydroxypropylcellulose) (HPC)",92 % of control
NC(=O)c1c(/N=C/c2cc(Br)ccc2O)sc2c1CCCC2,T/C,"dose: 25.0 mg/kg/injection, schedule: Q04DX002 (ip), vehicle: saline with Tween-80",87 % of control
same,T/C,"dose: 50.0 mg/kg/injection, schedule: Q04DX002 (ip), vehicle: saline with Tween-80",87 % of control
same,T/C,"dose: 100.0 mg/kg/injection, schedule: Q04DX002 (ip), vehicle: saline with Tween-80",93 % of control
same,T/C,"dose: 400.0 mg/kg/injection, schedule: Q04DX002 (ip), vehicle: saline with Tween-80",87 % of control
CCOC(=O)NNC(=O)O,T/C,"dose: 50.0 mg/kg/injection, schedule: Q01DX001 (ip), vehicle: carboxymethylcellulose (CMC)",108 % of control
same,T/C,[1],90 % of control
O=Cc1cc([N+](=O)[O-])cc(CCl)c1O,T/C,[4],90 % of control
Cc1ccc(Nc2c3ccccc3nc3ccccc23)cc1C,T/C,"dose: 25.0 mg/kg/injection, schedule: Q01DX009 (ip), vehicle: Klucel (hydroxypropylcellulose) (HPC)",94 % of control
same,T/C,"dose: 50.0 mg/kg/injection, schedule: Q01DX009 (ip), vehicle: Klucel (hydroxypropylcellulose) (HPC)",91 % of control
same,T/C,[4],102 % of control
same,T/C,"dose: 100.0 mg/kg/injection, schedule: Q04DX002 (ip), vehicle: Klucel (hydroxypropylcellulose) (HPC)",100 % of control
COC(=O)Cc1ccc2c(c1)OCO2,T/C,[5],97 % of control
same,T/C,[6],101 % of control
same,T/C,[7],103 % of control
CCC#CC(=O)OCC,T/C,"dose: 100.0 mg/kg/injection, schedule: Q04DX002 (ip), vehicle: saline",108 % of control
same,T/C,"dose: 200.0 mg/kg/injection, schedule: Q04DX002 (ip), vehicle: saline",97 % of control
same,T/C,"dose: 400.0 mg/kg/injection, schedule: Q04DX002 (ip), vehicle: saline",105 % of control
CCOC(=O)C1(CCC#N)CC(C#N)(c2ccccc2)CCC1=O (stereo unspecified),T/C,"dose: 100.0 mg/kg/injection, schedule: Q04DX003 (ip), vehicle: acetone",98 % of control
same,T/C,"dose: 200.0 mg/kg/injection, schedule: Q04DX003 (ip), vehicle: acetone",90 % of control
same,T/C,"dose: 400.0 mg/kg/injection, schedule: Q04DX003 (ip), vehicle: acetone",93 % of control
COc1cc(Nc2ccc(Oc3ccc(O)c(CN)c3)cc2)c2ncccc2c1,T/C,"dose: 75.0 mg/kg/injection, schedule: Q01DX001 (ip), vehicle: other",103 % of control
same,T/C,"dose: 150.0 mg/kg/injection, schedule: Q01DX001 (ip), vehicle: other",97 % of control
same,T/C,"dose: 300.0 mg/kg/injection, schedule: Q01DX001 (ip), vehicle: other",100 % of control
N#CSCCN1C(=O)C2C3CCC(O3)C2C1=O (stereo unspecified),T/C,"dose: 6.25 mg/kg/injection, schedule: Q04DX002 (ip), vehicle: saline with Tween-80",94 % of control
same,T/C,"dose: 12.5 mg/kg/injection, schedule: Q04DX002 (ip), vehicle: saline with Tween-80",97 % of control
Nc1ncc(C=Nc2ccc(C(=O)O)cc2)c(N)n1,T/C,[2],94 % of control
same,T/C,[3],102 % of control
CCN(CC)CC(=O)NCC(CCN1CCCCC1)(CCN1CCCCC1)c1cccc2ccccc12,T/C,"dose: 25.0 mg/kg/injection, schedule: Q01DX009 (ip), vehicle: saline",96 % of control
same,T/C,"dose: 50.0 mg/kg/injection, schedule: Q01DX009 (ip), vehicle: saline",104 % of control
same,T/C,"dose: 100.0 mg/kg/injection, schedule: Q04DX003 (ip), vehicle: saline",110 % of control
N#Cc1cn(-c2ccc(Cl)cc2)c2ncccc12,T/C,"dose: 25.0 mg/kg/injection, schedule: Q01DX001 (ip), vehicle: saline",100 % of control
same,T/C,"dose: 50.0 mg/kg/injection, schedule: Q01DX001 (ip), vehicle: saline",100 % of control
same,T/C,"dose: 100.0 mg/kg/injection, schedule: Q01DX001 (ip), vehicle: saline with Tween-80",88 % of control
same,T/C,[5],100 % of control
same,T/C,[6],87 % of control
same,T/C,[7],102 % of control
OC1(C2C=CC=C2)c2ccccc2C=Cc2ccccc21,T/C,"dose: 9.38 mg/kg/injection, schedule: Q01DX001 (ip), vehicle: other",100 % of control
same,T/C,"dose: 18.75 mg/kg/injection, schedule: Q01DX001 (ip), vehicle: other",100 % of control
same,T/C,"dose: 37.5 mg/kg/injection, schedule: Q01DX001 (ip), vehicle: other",100 % of control
O=NN(CCCl)C(=O)NC(C(=O)O)C1CCCCC1 (stereo unspecified),T/C,"dose: 8.0 mg/kg/injection, schedule: Q01DX001 (ip), vehicle: saline with Tween-80",118 % of control
same,T/C,"dose: 12.0 mg/kg/injection, schedule: Q01DX001 (ip), vehicle: saline with Tween-80",171 % of control
same,T/C,"dose: 26.0 mg/kg/injection, schedule: Q01DX001 (ip), vehicle: saline with Tween-80",153 % of control
same,T/C,"dose: 40.0 mg/kg/injection, schedule: Q01DX001 (ip), vehicle: saline with Tween-80",253 % of control
same,T/C,"dose: 60.0 mg/kg/injection, schedule: Q01DX001 (ip), vehicle: saline with Tween-80",412 % of control
same,T/C,"dose: 90.0 mg/kg/injection, schedule: Q01DX001 (ip), vehicle: saline with Tween-80",482 % of control
same,T/C,"dose: 133.0 mg/kg/injection, schedule: Q01DX001 (ip), vehicle: saline with Tween-80",266 % of control
C=CCCC1(C(C)CC)C(=O)NC(=S)NC1=O (stereo unspecified),T/C,"dose: 75.0 mg/kg/injection, schedule: Q01DX001 (ip), vehicle: saline",100 % of control
same,T/C,"dose: 150.0 mg/kg/injection, schedule: Q01DX001 (ip), vehicle: saline",95 % of control
same,T/C,"dose: 300.0 mg/kg/injection, schedule: Q01DX001 (ip), vehicle: saline",100 % of control

# Source: PubChem BioAssay AID248 (DTP/NCI, 2004)
